According to US5389634A, “Imidazole derivatives having angiotensin II receptor antagonistic activity” (Roussel-Uclaf, priority 1990, dated 1995):

Columns and labels:
angiotensin II receptor = target: T1, angiotensin II receptor (Rattus norvegicus, UniProt P25095); experiment: Test on the angiotensin II receptor (displacement of I^125 angiotensin II on rat liver membrane preparation); assay type: binding; settings: 25° C., 150 minutes, pH 7.4, read-out: IC50 (50% inhibiting concentration, displacement of specific radioactivity fixed on the receptor)
T1 construct: A fresh membrane preparation obtained from the liver of a rat was used; from tissue; host or cells: rat liver membranes
T1 sequence (P25095 1-359): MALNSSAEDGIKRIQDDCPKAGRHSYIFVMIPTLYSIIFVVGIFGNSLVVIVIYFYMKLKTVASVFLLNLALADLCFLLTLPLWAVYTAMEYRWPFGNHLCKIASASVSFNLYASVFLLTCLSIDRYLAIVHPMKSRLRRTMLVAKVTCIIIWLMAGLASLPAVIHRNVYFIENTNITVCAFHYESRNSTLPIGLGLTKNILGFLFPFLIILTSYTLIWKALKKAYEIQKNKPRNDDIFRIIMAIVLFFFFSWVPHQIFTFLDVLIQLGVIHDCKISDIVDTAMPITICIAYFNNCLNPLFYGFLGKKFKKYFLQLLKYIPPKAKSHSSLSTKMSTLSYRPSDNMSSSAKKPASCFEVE
Description: A fresh membrane preparation obtained from the liver of a rat was used and the tissue was ground up in a polytron in a Tris 50 mM buffer pH 7.4. The grinding was followed by 3 centrifugations at 30,000 g for 15 minutes and the deposits were taken up in between in the Tris buffer pH 7.4. The last deposits were suspended in an incubation buffer (Tris 20 mM, NaCl 135 mM, KCl 10 mM, glucose 5 mM, MgCl2 10 mM PMSF 0.3 mM, bacitracin 0.1 mM, BSA 0.2%) The aliquoted fractions of 2 ml were divided into hemolysis tubes and I^125 angiotensin II (25,000 DPM per tube) and the product to be studied were added. The product was first tested at 3×10^-5 M three times. When the tested product displaced by more than 50% the radioactivity linked specifically to the receptor, it was tested again according to a range of 7 concentrations to determine the concentration which inhibited by 50% the radioactivity linked specificaly to the receptor. In this way, the 50% inhibiting concentration was determined.
The non-specific bond was determined by addition of the product of Example 94 of European Patent No. 0,253,310, at 10^-5 M (three times). The medium was incubated at 25° C. for 150 minutes, put in a water bath at 0° C. for 5 minutes, filtered under vacuum, rinsed with Tris buffer pH 7.4 and the radioactivity was counted in the presence of scintillating Triton. The results were expressed directly as the 50% inhibiting concentration (IC50), that is as the concentration of studied product, expressed in nM, necessary to displace 50% of the specific radioactivity fixed on the receptor studied.

[1] = tested on: angiotensin II on the isolated portal vein; experiment: Antagonistic activity of angiotensin II on the isolated portal vein; assay type: cell-based, male Wistar rats; settings: isolated rat portal vein, angiotensin II 3.10^-8 M, compound 15 minutes before stimulation, 37° C.; read-out: IC50 (concentration which produced a 50% inhibition of the response to angiotensin)
Description: The portal vein of male Wistar rats weighing about 350 g (IFFA Credo France) was removed after cervical dislocation and placed rapidly in a physiological solution (see below) at ambient temperature. A ring of about 1 mm was mounted in a bath having an isolated organ containing 20 ml of the following physiological solution (composition in mM: NaCl 118.3-KCl […]-MgSO4 1.2-KH2 PO4 1.2-NaHCO3 25-glucose 11.1-CaCl2 2.5). The medium was maintained at 37° C. and oxygenated with an O2 (95%), CO2 (5%) mixture. The initial pressure imposed was 1 g, the rings were left at rest for 60 to 90 minutes. To avoid spontaneous contractions, verapamil was added to the incubation bath (1.10^-6 M).
At the end of the rest period, angiotensin II (Ciba hypertensin) 3.10^-8 M was added to the incubation bath and left in contact with the preparation for 1 minute. This operation was repeated every 30 minutes with the tissue being washed 3 or 4 times between two stimulations by angiotensin. The compound to be studied was introduced into the bath 15 minutes before a new stimulation by angiotensin. From increasing concentrations of the molecule being applied, an IC50 (concentration which produced a 50% inhibition of the response to angiotensin) can be calculated, this being expressed in nanomoles.

| Structure (SMILES) | IC50 (angiotensin II receptor) | IC50 [1] |
| --- | --- | --- |
| CCCCc1nc2ccccc2n1Cc1ccc(C(=O)Nc2cccc3[nH]ccc23)cc1 [Example 6, 4-((2-butyl-1H-benzimidazol-1-yl)-methyl)-N-(1H-indol-4-yl) benzamide] | 3460 nM |  |
| CCCCc1nc2cc(C)c(C)cc2n1Cc1ccc(C(=O)O)cc1 [Example 15, 4-((2-butyl-5,6-dimethyl-1H-benzimidazol-1-yl)-methyl) benzoic acid] | 3610 nM |  |
| CCCCc1nc2ccncc2n1Cc1ccc(C(=O)O)cc1 [Example 20, 4-((2-butyl-3H-imidazo(4,5-c)pyridin-3-yl)-methyl) benzoic acid] | 2720 nM |  |
| CCCCc1nc2cccnc2n1Cc1ccc(C(=O)O)cc1 [Example 25] |  | 830 nM |

Continued by falling IC50 (angiotensin II receptor), values first:

| IC50 (angiotensin II receptor) | IC50 [1] | Structure (SMILES) |
| --- | --- | --- |
| 2350 nM | 3400 nM | CCCCc1nc2ccc(C(=O)O)cc2n1Cc1ccc(C(=O)O)cc1 [Example 2, 2-Butyl-1-((4-carboxyphenyl)-methyl)-1H-benzimidazol-6-carboxylic acid] |
| 2270 nM | 3280 nM | CCCCc1nc2cc3ccccc3cc2n1Cc1ccc(C(=O)O)cc1 [Example 10, 4-((2-butyl-1H-naphth(2,3-d)imidazol-1-yl)-methyl) benzoic acid] |
| 1440 nM | 3600 nM | CCCCc1nc2ccccc2n1Cc1ccc(C(=O)O)cc1 [Example 5, 4-((2-butyl-1H-benzimidazol-1-yl)-methyl) benzoic acid] |
| 789 nM |  | CCCCc1nc2cscc2n1Cc1ccc(-c2ccccc2C(=O)O)cc1 [Example 34, 4'-((2-butyl-1H-thieno-(3,4-d)-imidazol-1-yl)-methyl)-(1,1'-biphenyl)-2-carboxylic acid] |
| 89 nM |  | CCCCc1nc2ncccc2n1Cc1ccc(-c2ccccc2C(=O)O)cc1 [Example 27, 4'-((2-butyl-1H-imidazo-(4,5-b)-pyridin-1-yl)-methyl)-(1,1'-biphenyl)-2-carboxylic acid] |
